A word on the Ki: it is a measure of affinity in units of concentration, obtained from inhibition or displacement. High values mean lower affinity, low ones higher affinity. For orientation: solubility means the dissolved amount per volume that the medium holds. Higher therefore signals a readily soluble substance. The bioavailability is dose-corrected exposure relative to a reference, in per cent. A high value points to much systemic uptake.

The text below walks through data of ChEMBL document CHEMBL1136832, “Synthesis of 7-chloro-2,3-dihydro-2-[1-(pyridinyl)alkyl]-pyridazino[4,5-b]quinoline-1,4,10(5H)-triones as NMDA glycine-site antagonists” (Bioorg Med Chem Lett, 2003).

The target in one series is Glutamate NMDA receptor. The format is cell membranes, Membrane.
For the next series, the system named is Caco-2. Conditions: Homo sapiens.
A further series can be described thus: physchem. Conditions: buffer, pH 7.4.
Series [1] in a line: Oral bioavailability in rat. Conditions: in vivo.

Description for Caco-2: Cellular permeability in Caco-2 cells.
Description for Glutamate NMDA receptor: Affinity for glycine site of NMDA receptor on rat brain membranes by displacement of [3H]- MDL 105,519.

As to `CCCC(c1ccncc1)n1[nH]c(=O)c2nc3cc(Cl)ccc3c(O)c2c1=O.CS(=O)(=O)O` (stereo not drawn), the Ki at Glutamate NMDA receptor stood at 4.34 µM. In the series with Caco-2, this compound showed a Permeability of 1.6e-05. Further, the solubility in the series “physchem” is more than 220 µg/mL.
With `CCC(c1ccccn1)n1[nH]c(=O)c2nc3cc(Cl)ccc3c(O)c2c1=O` (stereo not drawn), the inhibition constant (Ki) on Glutamate NMDA receptor turned out to be 2.36 µM.
In the case of `O=c1[nH]n(Cc2ccncc2)c(=O)c2c(=O)c3ccc(Cl)cc3[nH]c12`, in series [1], the bioavailability was 5%. The compound also came in with a Permeability with Caco-2 of 2e-07.
On Glutamate NMDA receptor, `CCCCC(c1ccccn1)n1[nH]c(=O)c2nc3cc(Cl)ccc3c(O)c2c1=O.CS(=O)(=O)O` (stereo not drawn) came in with a Ki of more than 10 µM. The Permeability with Caco-2 came to 1.6e-05. Also, in “physchem”, the solubility was more than 220 µg/mL.
`CC(C)CC(c1ccncc1)n1[nH]c(=O)c2nc3cc(Cl)ccc3c(O)c2c1=O.CS(=O)(=O)O` (stereo not drawn) returned a Ki on Glutamate NMDA receptor of 5.23 µM. This compound displayed a Permeability with Caco-2 of 1.1e-05. In “physchem”, this compound displayed a solubility of more than 170 µg/mL.
At Glutamate NMDA receptor, `CC(c1cc[n+]([O-])cc1)n1[nH]c(=O)c2nc3cc(Cl)ccc3c(O)c2c1=O` (stereo not drawn) showed a Ki of 2.42 µM.
Compound `CS(=O)(=O)O.O=c1[nH]n(C(c2ccccc2)c2ccncc2)c(=O)c2c(O)c3ccc(Cl)cc3nc12` (stereo not drawn) displayed a Ki on Glutamate NMDA receptor of more than 10 µM. In the series on Caco-2, this compound came in with a Permeability of 4e-06. For the same compound, the concentration in solution in “physchem” (solubility) came to 130 µg/mL.
As for `O=c1[nH]n(Cc2cc[n+]([O-])cc2)c(=O)c2c(O)c3ccc(Cl)cc3nc12`, on Glutamate NMDA receptor, the inhibition constant (Ki) amounted to 0.439 µM. Moreover, the Permeability with Caco-2 amounted to 5e-07. This compound also came in with a solubility in the series “physchem” of more than 160 µg/mL.
At Glutamate NMDA receptor, `CS(=O)(=O)O.O=c1[nH]n(C(c2ccccn2)C2CC2)c(=O)c2c(O)c3ccc(Cl)cc3nc12` (stereo not drawn) displayed a Ki of 0.996 µM. This compound showed a Permeability in the series with Caco-2 of 9.8e-06. The compound also displayed a solubility in “physchem” of 490 µg/mL.
The compound `CCC(c1ccncc1)n1[nH]c(=O)c2[nH]c3cc(Cl)ccc3c(=O)c2c1=O.CS(=O)(=O)O` (stereo not drawn) registered a bioavailability in series [1] of 17%. The compound further came in with a Permeability in the series with Caco-2 of 1.1e-05. In addition, the solubility in “physchem” was more than 200 µg/mL.
On Glutamate NMDA receptor, `CC(C)CC(c1ccccn1)n1[nH]c(=O)c2nc3cc(Cl)ccc3c(O)c2c1=O.CS(=O)(=O)O` (stereo not drawn) displayed a Ki of more than 10 µM. For the same compound, the Permeability in the series with Caco-2 amounted to 9.1e-06. In the series “physchem”, this compound came in with a solubility of more than 130 µg/mL.
With `CC(c1ccncc1)n1[nH]c(=O)c2[nH]c3cc(Cl)ccc3c(=O)c2c1=O.CS(=O)(=O)O` (stereo not drawn), the bioavailability in series [1] was 30%. Besides, in the series with Caco-2, the Permeability was found to be 5.8e-06.
Regarding `CS(=O)(=O)O.O=c1[nH]n(C(c2ccccn2)C2CCCC2)c(=O)c2c(O)c3ccc(Cl)cc3nc12` (stereo not drawn), the Ki at Glutamate NMDA receptor was more than 10 µM. The same compound gave a Permeability in the series with Caco-2 of 5.6e-06. This compound had a solubility in the series “physchem” of more than 170 µg/mL.
